# From US20200131196A1 (Mount Tam Therapeutics, Inc., priority 2017, published 2020)
# Where two headings read alike, the source gives them in different places.
# Tests used:
# [1] = test system: AsPC-1; assay: OncoPanel cell proliferation assay, AsPC-1
# Procedure: Cells were seeded into 384-well plates and incubated in a humidified atmosphere of 5% CO2 at 37° C. Compounds were added the day following cell seeding. At the same time, a time zero untreated cell plate was generated. After a 3-day incubation period, cells were fixed and stained to allow fluorescence imaging of nuclei. Compounds (1 mM stock solutions) were serially diluted in half-log steps from the highest test concentration (1 micromol), and assayed over 10 concentrations with a maximum assay concentration of 0.1% DMSO. Automated fluorescence microscopy was carried out using a Molecular Devices ImageXpress Micro XL high-content imager, and images were collected with a 4× objective. 16-bit TIFF images were acquired and analyzed with MetaXpress 5.1.0.41 software.
# GI50 is the concentration needed to reduce the observed growth by half (midway between the curve maximum and the time zero value). […] In rare instances, values <0 or >10 may be observed. […] Curve-fitting, calculations, and report generation was performed using a custom data reduction engine and MathIQ based software (AIM).
# [2] = test system: Hs 852.T; assay: OncoPanel cell proliferation assay, Hs 852.T; format: cell-based, human
# Procedure: (§1) Cells were grown in RPMI 1640, 10% FBS, 2 mM L-alanyl-L-glutamine, 1 mM Na pyruvate, or a special medium. Cells were seeded into 384-well plates and incubated in a humidified atmosphere of 5% CO2 at 37° C. Compounds were added the day following cell seeding. At the same time, a time zero untreated cell plate was generated. After a 3-day incubation period, cells were fixed and stained to allow fluorescence imaging of nuclei. Compounds (1 mM stock solutions) were serially diluted in half-log steps from the highest test concentration ([…]), and assayed over 10 concentrations with a maximum assay concentration of 0.1% DMSO. Automated fluorescence microscopy was carried out using a Molecular Devices ImageXpress Micro XL high-content imager, and images were collected with a 4× objective. 16-bit TIFF images were acquired and analyzed with MetaXpress 5.1.0.41 software.
# (§2) Cell proliferation was measured by the fluorescence intensity of an incorporated nuclear dye. The output is referred to as the relative cell count, where the measured nuclear intensity is transformed to percent of control (POC) using the following formula: […]
# (§3) Cellular response parameters were calculated using nonlinear regression to a sigmoidal single-site dose response model:
# (§4) EC50 is the test compound concentration at the curve inflection point or half the effective response (parameter C of the fitted curve solution). GI50 is the concentration needed to reduce the observed growth by half (midway between the curve maximum and the time zero value). “Cell Count Activity Area” is an estimate of the integrated area above the curve (Barretina, et al. The Cancer Cell Line Encyclopedia enables predictive modelling of anticancer drug sensitivity. Nature 483: 603-607). […] In rare instances, values <0 or >10 may be observed. […] Curve-fitting, calculations, and report generation was performed using a custom data reduction engine and MathIQ based software (AIM).
# [3] = test system: SNU-C2B; assay: OncoPanel cell proliferation assay, SNU-C2B; format: cell-based, human
# Procedure: as §1, §2, §3, §4
# [4] = test system: G-402; assay: OncoPanel cell proliferation assay, G-402; format: cell-based, human
# Procedure: as §1, §2, §3, §4
# [5] = test system: CRO-AP2; assay: OncoPanel cell proliferation assay, CRO-AP2; format: cell-based, human
# Procedure: as §1, §2, §3, §4
# [6] = test system: T24; assay: OncoPanel cell proliferation assay, T24; format: cell-based, human
# Procedure: as §1, §2, §3, §4
# [7] = Homo sapiens, read-out: Cell Count EC50
# [8] = Homo sapiens, read-out: Cell Count GI50
# [9] = Homo sapiens, read-out: Cell Count IC50
smiles,measurement,setting,value
"CO[C@H]1C[C@@H]2CC[C@@H](C)[C@@](O)(O2)C(=O)C(=O)N2CCCC[C@H]2C(=O)O[C@H]([C@H](C)C[C@H]2C[C@H]3C[C@@H]2C[C@@H]3O)CC(=O)[C@H](C)/C=C(\C)[C@@H](O)[C@@H](OC)C(=O)[C@H](C)C[C@H](C)/C=C/C=C/C=C/1C [Formula II, C37-[(1R,2S,4R,5S)-5-hyhroxybicyclo[2.2.1]heptane] rapamycin]",Cell Count Activity Area,[1]; AsPC-1,1.68
same,Relative cell count (%) Mean,"[1]; AsPC-1, 1.00E+00 microM",70.3%
same,Relative cell count (%) Mean,"[1]; AsPC-1, 1.00E-01 microM",74.4%
same,Relative cell count (%) Mean,"[1]; AsPC-1, 1.00E-02 microM",89.3%
same,Relative cell count (%) Mean,"[1]; AsPC-1, 1.00E-03 microM",90.9%
same,Relative cell count (%) Mean,"[1]; AsPC-1, 1.01E-04 microM",105.4%
same,Relative cell count (%) Mean,"[1]; AsPC-1, 3.16E-01 microM",77.3%
same,Relative cell count (%) Mean,"[1]; AsPC-1, 3.17E-02 microM",81.7%
same,Relative cell count (%) Mean,"[1]; AsPC-1, 3.17E-03 microM",90.9%
same,Relative cell count (%) Mean,"[1]; AsPC-1, 3.18E-04 microM",97.5%
same,Relative cell count (%) Mean,"[1]; AsPC-1, 3.18E-05 microM",104.0%
same,EC50,"[1]; Homo sapiens, ASPC1",8.6 nM
same,EC50,"[1]; Homo sapiens, ASPC1, read-out: Cell Count EC50",8.56 nM
same,GI50,"[1]; Homo sapiens, ASPC1, read-out: Cell Count GI50",246 nM
same,IC50,"[1]; Homo sapiens, ASPC1, read-out: Cell Count IC50",> 1000 nM
same,Cell Count Activity Area,[2],0.95
same,Relative cell count (%) Mean,[2]; 1.00E+00 microM,72.0%
same,Relative cell count (%) Mean,[2]; 1.00E-01 microM,80.1%
same,Relative cell count (%) Mean,[2]; 1.00E-02 microM,91.2%
same,Relative cell count (%) Mean,[2]; 1.00E-03 microM,92.9%
same,Relative cell count (%) Mean,[2]; 1.01E-04 microM,98.7%
same,Relative cell count (%) Mean,[2]; 3.16E-01 microM,73.2%
same,Relative cell count (%) Mean,[2]; 3.17E-02 microM,82.3%
same,Relative cell count (%) Mean,[2]; 3.17E-03 microM,90.6%
same,Relative cell count (%) Mean,[2]; 3.18E-04 microM,92.8%
same,Relative cell count (%) Mean,[2]; 3.18E-05 microM,95.0%
same,EC50,[2]; [7],> 1000 nM
same,GI50,[2]; [8],> 1000 nM
same,IC50,[2]; [9],> 1000 nM
same,Cell Count Activity Area,[3],2.73
same,Relative cell count (%) Mean,[3]; 1.00E+00 microM,74.9%
same,Relative cell count (%) Mean,[3]; 1.00E-01 microM,76.2%
same,Relative cell count (%) Mean,[3]; 1.00E-02 microM,79.1%
same,Relative cell count (%) Mean,[3]; 1.00E-03 microM,74.1%
same,Relative cell count (%) Mean,[3]; 1.01E-04 microM,97.1%
same,Relative cell count (%) Mean,[3]; 3.16E-01 microM,66.6%
same,Relative cell count (%) Mean,[3]; 3.17E-02 microM,69.5%
same,Relative cell count (%) Mean,[3]; 3.17E-03 microM,76.3%
same,Relative cell count (%) Mean,[3]; 3.18E-04 microM,88.6%
same,Relative cell count (%) Mean,[3]; 3.18E-05 microM,106.6%
same,EC50,[3]; [7],0.179 nM
same,GI50,[3]; [8],3.16 nM
same,IC50,[3]; [9],> 1000 nM
same,Cell Count Activity Area,[4],4.75
same,Relative cell count (%) Mean,[4]; 1.00E+00 microM,25.8%
same,Relative cell count (%) Mean,[4]; 1.00E-01 microM,28.4%
same,Relative cell count (%) Mean,[4]; 1.00E-02 microM,40.5%
same,Relative cell count (%) Mean,[4]; 1.00E-03 microM,63.7%
same,Relative cell count (%) Mean,[4]; 1.01E-04 microM,100.0%
same,Relative cell count (%) Mean,[4]; 3.16E-01 microM,27.5%
same,Relative cell count (%) Mean,[4]; 3.17E-02 microM,36.6%
same,Relative cell count (%) Mean,[4]; 3.17E-03 microM,52.6%
same,Relative cell count (%) Mean,[4]; 3.18E-04 microM,86.8%
same,Relative cell count (%) Mean,[4]; 3.18E-05 microM,97.8%
same,EC50,[4]; [7],1.13 nM
same,GI50,[4]; [8],1.51 nM
same,IC50,[4]; [9],2.87 nM
same,Cell Count Activity Area,[5],4.89
same,Relative cell count (%) Mean,[5]; 1.00E+00 microM,24.8%
same,Relative cell count (%) Mean,[5]; 1.00E-01 microM,27.5%
same,Relative cell count (%) Mean,[5]; 1.00E-02 microM,34.9%
same,Relative cell count (%) Mean,[5]; 1.00E-03 microM,65.3%
same,Relative cell count (%) Mean,[5]; 1.01E-04 microM,100.6%
same,Relative cell count (%) Mean,[5]; 3.16E-01 microM,24.7%
same,Relative cell count (%) Mean,[5]; 3.17E-02 microM,27.0%
same,Relative cell count (%) Mean,[5]; 3.17E-03 microM,47.3%
same,Relative cell count (%) Mean,[5]; 3.18E-04 microM,81.8%
same,Relative cell count (%) Mean,[5]; 3.18E-05 microM,98.0%
same,EC50,[5]; [7],1.07 nM
same,GI50,[5]; [8],1.65 nM
same,IC50,[5]; [9],2.21 nM
same,Cell Count Activity Area,[6],4.16
same,Relative cell count (%) Mean,[6]; 1.00E+00 microM,36.6%
same,Relative cell count (%) Mean,[6]; 1.00E-01 microM,42.2%
same,Relative cell count (%) Mean,[6]; 1.00E-02 microM,52.8%
same,Relative cell count (%) Mean,[6]; 1.00E-03 microM,61.8%
same,Relative cell count (%) Mean,[6]; 1.01E-04 microM,85.7%
same,Relative cell count (%) Mean,[6]; 3.16E-01 microM,40.8%
same,Relative cell count (%) Mean,[6]; 3.17E-02 microM,48.5%
same,Relative cell count (%) Mean,[6]; 3.17E-03 microM,52.6%
same,Relative cell count (%) Mean,[6]; 3.18E-04 microM,69.8%
same,Relative cell count (%) Mean,[6]; 3.18E-05 microM,93.2%
same,EC50,"[6]; Homo sapiens, T-24, read-out: Cell Count EC50",0.471 nM
same,GI50,"[6]; Homo sapiens, T-24, read-out: Cell Count GI50",3.09 nM
